The results in this text go back to BindingDB's records for patent US20250195521 (Revolution Medicines, 2025).

What is called IC50 is the midpoint of a concentration-inhibition curve. A high value points to weaker potency.

Some targets named below: GTPase NRas [G12C] (Homo sapiens, UniProt P01111, G12C); GTPase KRas [G12D] (Homo sapiens, UniProt P01116, G12D); GTPase KRas [G12V] (Homo sapiens, UniProt P01116, G12V); GTPase KRas [G13C] (Homo sapiens, UniProt P01116, G13C); kras g13d (Homo sapiens, UniProt P01116, G13D); GTPase KRas (Homo sapiens, UniProt P01116); GTPase KRas [G12C] (Homo sapiens, UniProt P01116, G12C); GTPase NRas (Homo sapiens, UniProt P01111); GTPase NRas [Q61R] (Homo sapiens, UniProt P01111, Q61R); GTPase KRas [Q61H] (Homo sapiens, UniProt P01116, Q61H); GTPase NRas [Q61K] (Homo sapiens, UniProt P01111, Q61K).

Some results are limits rather than exact numbers.

GTPase KRas [G13C], sequence (P01116 whole entry G13C): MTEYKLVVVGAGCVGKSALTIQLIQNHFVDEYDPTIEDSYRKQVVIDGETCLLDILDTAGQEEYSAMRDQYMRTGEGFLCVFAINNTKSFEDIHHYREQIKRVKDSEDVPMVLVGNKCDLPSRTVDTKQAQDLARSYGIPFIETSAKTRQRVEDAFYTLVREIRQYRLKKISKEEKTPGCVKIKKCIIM
kras g13d, sequence (P01116 whole entry G13D): as the sequence (P01116 whole entry G13C) above, with C13D counted along it
GTPase KRas, sequence (P01116 whole entry): as the sequence (P01116 whole entry G13C) above, with C13G counted along it
GTPase KRas [G12V], sequence (P01116 whole entry G12V): as the sequence (P01116 whole entry G13C) above, with G12V, C13G counted along it
GTPase NRas [G12C], sequence (P01111 whole entry G12C): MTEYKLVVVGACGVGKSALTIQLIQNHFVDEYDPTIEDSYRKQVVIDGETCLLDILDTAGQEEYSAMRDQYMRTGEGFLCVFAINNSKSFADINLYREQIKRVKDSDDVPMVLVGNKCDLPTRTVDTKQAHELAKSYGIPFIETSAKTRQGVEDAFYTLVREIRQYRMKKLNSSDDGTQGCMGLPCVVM
GTPase KRas [G12D], sequence (P01116 whole entry G12D): as the sequence (P01116 whole entry G13C) above, with G12D, C13G counted along it
GTPase KRas [G12C], sequence (P01116 whole entry G12C): as the sequence (P01116 whole entry G13C) above, with G12C, C13G counted along it
GTPase KRas [Q61H], sequence (P01116 whole entry Q61H): as the sequence (P01116 whole entry G13C) above, with C13G, Q61H counted along it
GTPase NRas, sequence (P01111 whole entry): as the sequence (P01111 whole entry G12C) above, with C12G counted along it
GTPase NRas [Q61R], sequence (P01111 whole entry Q61R): as the sequence (P01111 whole entry G12C) above, with C12G, Q61R counted along it
GTPase NRas [Q61K], sequence (P01111 whole entry Q61K): as the sequence (P01111 whole entry G12C) above, with C12G, Q61K counted along it

On to `CCN1C[C@@H](C(=O)N(C)[C@H](C(=O)N[C@H]2Cc3cc(O)cc(c3)-c3ccc4c(c3)c(c(-c3cnccc3COC)n4CC)CC(C)(C)COC(=O)[C@@H]3CCCN(N3)C2=O)C(C)C)CC1=O` [US20250195521, Example A16], for which the IC50 result against GTPase NRas [G12C] was “in the range around 550 nM”; against GTPase KRas [G12D], “in the range around 5500 nM”; at GTPase KRas [G12V], “in the range around 550 nM”; against GTPase KRas [G13C], 550 nM; against kras g13d, “in the range around 550 nM”; against GTPase KRas, “in the range around 550 nM”. Further, on GTPase KRas [G12C], inhibition was half-maximal at 55 nM (IC50).
Consider `CCn1c(-c2cnccc2COC)c2c3cc(ccc31)-c1cc(O)cc(c1)C[C@H](NC(=O)[C@H](C(C)C)N(C)C(=O)[C@@H]1NC[C@@H]3C[C@@H]31)C(=O)N1CCC[C@H](N1)C(=O)OCC(C)(C)C2` [US20250195521, Example A78], for which the half-inhibitory concentration (IC50) entry against GTPase NRas [G12C] is “in the range around 550 nM”; against GTPase KRas [G12D], “in the range around 550 nM”; against GTPase KRas [G12V] it was “in the range around 550 nM”; against GTPase KRas [G13C], 55 nM; at kras g13d, “in the range around 550 nM”; at GTPase KRas, “in the range around 550 nM”. Also, the half-inhibitory concentration (IC50) against GTPase KRas [G12C] worked out at 550 nM.
In turn, `CCn1c(-c2cccnc2[C@H](C)OC)c2c3cc(ccc31)-c1cc(O)cc(c1)C[C@H](NC(=O)[C@H](C(C)C)N(C)C(=O)[C@H]1CCN(C(=O)OC(C)C)C1)C(=O)N1CCC[C@H](N1)C(=O)OCC(C)(C)C2` [US20250195521, Example A117] displayed an IC50 at GTPase KRas [G12V] greater than 10000 nM.
`CCn1c(-c2cccnc2[C@H](C)OC)c2c3cc(ccc31)-c1csc(n1)C[C@H](NC(=O)[C@H](C(C)C)N(C)C(=O)OC)C(=O)N1CCC[C@H](N1)C(=O)OCC(C)(C)C2` [US20250195521, Example A138]: the IC50 entry is “in the range around 550 nM” against GTPase NRas [G12C]; “in the range around 550 nM” at GTPase NRas; “in the range around 5500 nM” on GTPase KRas [G12D]; “in the range around 550 nM” at GTPase NRas [Q61R]; “in the range around 550 nM” against GTPase KRas [Q61H]; “in the range around 550 nM” on GTPase KRas [G12V]. The IC50 at GTPase KRas [G13C] is 550 nM; against kras g13d, “in the range around 5500 nM”; against GTPase NRas [Q61K] it was “in the range around 550 nM”; on GTPase KRas, “in the range around 550 nM”; against GTPase KRas [G12C] it was 550 nM.
Compound `CCn1c(-c2cccnc2[C@H](C)OC)c2c3cc(ccc31)-c1cc(O)cc(c1)C[C@H](NC(=O)C1[C@H]3COC[C@@H]13)C(=O)N1CCC[C@H](N1)C(=O)OCC(C)(C)C2` (stereo not given in full) [US20250195521, Example A253] had an IC50 at GTPase KRas [G12D] greater than 10000 nM.
Regarding `CCn1c(-c2cccnc2[C@H](C)OC)c2c3cc(ccc31)-c1csc(n1)C[C@H](NC(=O)[C@H](C(C)C)N(C)C(=O)N1CCC[C@@H](N(C)C)CC1)C(=O)N1CCC[C@H](N1)C(=O)OCC(C)(C)C2` [US20250195521, Example A494], the 50% inhibitory concentration (IC50) entry at GTPase NRas [G12C], at GTPase NRas, against GTPase KRas [G12D], at GTPase NRas [Q61R], on GTPase KRas [Q61H] and against GTPase NRas [Q61K] was “in the range around 55 nM” each time. The IC50 entry against GTPase KRas was “in the range around 55 nM”; against GTPase KRas [G12C], 55 nM.
